Measurements from patent US20240132493A1, “IMIDAZOPYRIDINE DERIVATIVES AS STING AGONISTS” (Fulgent Genetics, Inc., priority 2021, published 2024).

Tests used:
STING [1] = target: T1, STING (Homo sapiens, UniProt Q86WV6, G230A/H232R/R293Q/R71H); assay: qPCR analysis of mRNA levels of cytokine gene expression (IFNB, ISG15, CXCL10) in THP-1 cells; assay type: cell-based; conditions: 10 μM compound, 6 h, vs DMSO
T1 construct: Human monocyte cell THP-1 were purchased from ATCC (Catalog No. TIB-202); host or cells: THP-1 human monocyte cells
T1 sequence (Q86WV6 whole entry R71H/G230A/H232R/R293Q): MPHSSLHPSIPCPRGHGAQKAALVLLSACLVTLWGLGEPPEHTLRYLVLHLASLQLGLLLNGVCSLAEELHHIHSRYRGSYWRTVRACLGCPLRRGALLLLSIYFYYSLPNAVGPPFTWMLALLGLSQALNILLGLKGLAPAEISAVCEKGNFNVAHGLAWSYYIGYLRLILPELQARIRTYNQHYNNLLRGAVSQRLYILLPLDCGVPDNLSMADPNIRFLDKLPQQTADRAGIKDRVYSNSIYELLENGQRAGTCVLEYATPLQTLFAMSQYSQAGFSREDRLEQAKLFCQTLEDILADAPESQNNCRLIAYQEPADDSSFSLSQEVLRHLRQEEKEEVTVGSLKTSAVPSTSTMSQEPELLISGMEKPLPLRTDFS
Protocol: (§1) qPCR analysis of mRNA levels of cytokine gene expression in THP-1 cell Human monocyte cell THP-1 were purchased from ATCC (Catalog No. TIB-202). The complete growth medium was made with ATCC-formulated RPMI-1640 Medium (Catalog No. 30-2001) and supplemented with 2-mercaptoethanol to a final concentration of 0.05 mM, and fetal bovine serum (FBS) to a final concentration of 10%.
To evaluate the agonistic effects of chemicals on STING, the gene expression of IFNB, ISG15 and CXCL10 in human monocyte THP-1 cells was measured by real time qPCR. After the treatment of 10 μM Compounds for 6 hrs, cells were respectively lysed by TRIzol reagents (from Invitrogen). Total RNA was extracted according to the manufacturer's instruction. mRNA concentration was measured via 3rd generation NanoDrop machine. 1 μg of mRNA was used for the reverse transcription reaction with random primer, dNTP mix, RNase inhibitor and M-MuLV Reverse Transcriptase. SYBR green supermix and hot start DNA polymerase were used in qPCR with TBP gene as an internal control. Gene-specific primers were purchase from Integrated DNA Technologies.

[2] = Tolerability and body weight in CT-26 mouse model; assay type: in vivo; conditions: 3×1.5 mg/kg IP, BALB/c mice bearing CT-26
Protocol: (§2) Mice were randomized into study groups with 8 mice/group when average tumor volume was ˜70 mm^3. On day 1, 4 and 8 mice were dosed with vehicle or 1.5 mg/kg Cpd 4 (Example 4) in 5% DMSO, 45% PEG400, and 55% saline formulation by intraperitoneal injection. Tumor size and body weight were measured twice per week throughout the study. Tumor volume was calculated by applying length and width caliper measurements to the following formula: TV=0.5*L*W^2. Percent treated/control (T/C) value was calculated as 100×ΔT/ΔC (when ΔT>0) or 100×ΔT/Tsd (when ΔT<0) where ΔT and ΔC are the changes in the mean tumor volumes between the indicated day and the first day of measurement for the treatment and control groups, respectively. Tsd is the first day mean tumor volume of the treated group. Statistical analyses of the differences in tumor volume among the groups were evaluated using a one-way ANOVA. All data were analyzed using GraphPad Prism 8 (GraphPad Software, San Diego, CA). p<0.05 was considered to be statistically significant.

[3] = test system: CT-26 mouse colon adenocarcinoma; assay: Antitumor efficacy in s.c. CT-26 mouse colon adenocarcinoma model; assay type: in vivo, BALB/c mice
Protocol: Evaluation of Antitumor Efficacy in CT-26 Mouse Model
Six- to eight-week-old male BALB/c mice of 18-20 g were purchased from Taconic Biosciences (La Jolla, CA). Mouse colon carcinoma CT-26 (from ATCC) cells were maintained in RPMI-1640 medium supplemented with 10% fetal bovine serum (FBS), 100 U/ml penicillin and 100 μg/ml streptomycin, and incubated at 37° C. and 5% CO2. The cells growing in an exponential growth phase were harvested and counted for tumor inoculation. Each mouse was inoculated subcutaneously at the left and the right flank with 5×10^4 CT-26 tumor cells in 0.1 ml of serum-free medium for tumor development.
as §2, with “On day 1, 4 and 8 mice were dosed with vehicle or 1.5 mg/kg Cpd 4 (Example 4) in 5% DMSO, 45% PEG400, and 55% saline formulation by intraperitoneal injection.” left out, “Tsd is the first day mean tumor volume of the treated group.” left out, “All data were analyzed using GraphPad Prism 8 (GraphPad Software, San Diego, CA). p<0.05 was considered to be statistically significant.” left out

STING [4] = target: T1, STING; assay: Western blot analysis of activated STING and its downstream protein phosphorylation in THP-1 cells; assay type: cell-based; conditions: 10 μM compound, 3 h, vs DMSO
Protocol: The Western blot analysis of activated STING and its downstream protein phosphorylation in human monocyte THP-1 cells
as §1, with “Human” for “qPCR analysis of mRNA levels of cytokine gene expression in THP-1 cell Human”
After the THP-1 cells were treated with the 10 μM invented compounds for 3 hours, the cells were lysed by RIPA buffer, followed by washing with PBS. The total protein concentration was measured by BCA protein assay. The 10 μg protein sample was loaded after mixing with SDS-PAGE protein loading buffer, separated on SDS-PAGE and transferred to a PVDF membrane using the semi-dry transfer apparatus. After blocking with 5% BSA for 1 hr, the membrane was incubated with 1st antibodies overnight at 4° C., followed by incubation with HRP-conjugated 2nd antibodies (Catalog No. WBULS0100 from Millipore) for another 1 hr at room temperature. Lastly, the immunocomplexes were detected via the Bio-Rad ChemiDoc Touch Imaging System. Antibodies for western blotting were purchased from Cell Signaling Technology, catalog numbers 19781 (p-STING Ser366), 13647 (STING), 5483 (p-TBK1 Ser 172), 3504 (TBK1), 4947 (p-IRF3 Ser396), 4302 (IRF3) and 7074 (HRP-linked anti-rabbit IgG).

Row | SMILES | mRNA level of CXCL10 (STING [1]) | mRNA level of IFNB (STING [1]) | mRNA level of ISG15 (STING [1]) | body weight [2] | tolerability [2] | tumor growth rate of treated/control (T/C) ([3]; 3×1.5 mg/kg IP (day 1, 4, 8), day 12, s.c. CT-26 in BALB/c mice) | antitumor efficacy (tumor volume) ([3]; 3×1.5 mg/kg IP, s.c. CT-26 in BALB/c mice) | p-IRF3 level (STING [4]) | p-TBK1 level (STING [4]) | phosphorylated STING (p-STING) level (STING [4])
1 | CCn1nc(C)cc1C(=O)Nc1nc2cc(C(N)=O)cnc2n1C/C=C/Cn1c(NC(=O)c2cc(C)nn2CC)nc2cc(C(N)=O)cc(OCCCN3CCOCC3)c21 [Example 4, (E)-3-(4-(5-carbamoyl-2-(1-ethyl-3-methyl-1H-pyrazole-5-carboxamido)-7-(3-morpholinopropoxy)-1H-benzo[d]imidazol-1-yl)but-2-en-1-yl)-2-(l-ethyl-3-methyl-1H-pyrazole-5-carboxamido)-3H-imidazo[4,5-b]pyridine-6-carboxamide] | significantly upregulated | significantly upregulated | significantly upregulated | no bodyweight loss | well-tolerated | 19% | highly potent | higher levels | higher levels | higher levels
2 | CCn1nc(C)cc1C(=O)/N=c1\n(C)c2cc(C(N)=O)cnc2n1C/C=C/Cn1/c(=N/C(=O)c2cc(C)nn2CC)n(C)c2cc(C(N)=O)cc(OCCCN3CCOCC3)c21 [Example 6, (E)-3-((E)-4-((E)-5-carbamoyl-2-((1-ethyl-3-methyl-1H-pyrazole-5-carbonyl)imino)-3-methyl-7-(3-morpholinopropoxy)-2,3-dihydro-1H-benzo[d]imidazol-1-yl)but-2-en-1-yl)-2-((1-ethyl-3-methyl-1H-pyrazole-5-carbonyl)imino)-1-methyl-2,3-dihydro-1H-imidazo[4,5-b]pyridine-6-carboxamide] | significantly upregulated | significantly upregulated | significantly upregulated | – | – | – | – | – | – | –
3 | CCn1nc(C)cc1C(=O)Nc1nc2cc(C(N)=O)cnc2n1C/C=C/Cn1c(NC(=O)c2cc(C)nn2CC)nc2cc(C(N)=O)cc(OCCCN3CCNCC3)c21 [Example 8, (E)-3-(4-(5-carbamoyl-2-(1-ethyl-3-methyl-1H-pyrazole-5-carboxamido)-7-(3-(piperazin-1-yl)propoxy)-1H-benzo[d]imidazol-1-yl)but-2-en-1-yl)-2-(1-ethyl-3-methyl-1H-pyrazole-5-carboxamido)-3H-imidazo[4,5-b]pyridine-6-carboxamide] | significantly upregulated | significantly upregulated | significantly upregulated | – | – | – | – | higher levels | higher levels | higher levels
4 | CCn1nc(C)cc1C(=O)Nc1nc2cc(C(N)=O)cnc2n1C/C=C/Cn1c(NC(=O)c2cc(C)nn2CC)nc2cc(C(N)=O)cc(OCCN3CCOCC3)c21 [Example 10, (E)-3-(4-(5-carbamoyl-2-(1-ethyl-3-methyl-1H-pyrazole-5-carboxamido)-7-(2-morpholinoethoxy)-1H-benzo[d]imidazol-1-yl)but-2-en-1-yl)-2-(1-ethyl-3-methyl-1H-pyrazole-5-carboxamido)-3H-imidazo[4,5-b]pyridine-6-carboxamide] | significantly upregulated | significantly upregulated | significantly upregulated | – | – | – | – | higher levels | higher levels | higher levels
